Assay: in vitro
Details: human, hela cells, % viability

O=[N+]([O-])c1cccc(-c2cc(N3CCC(N4CCCCC4)CC3)ncn2)c1 [CBK037710]
viability at 28.5 h, 10 µM: 107%

COc1ccc2cc(/C=C(\C#N)c3nc(-c4cc5ccccc5oc4=O)cs3)c(Cl)nc2c1 [CBK261623]
viability at 28.5 h, 10 µM: 93.9%

Cc1ccnn1C(C)C(=O)NC(Cc1ccsc1)c1nccs1 (centres unmarked) [CBK285141]
viability at 28.5 h, 10 µM: 92.1%

O=C(O)c1cccc(NS(=O)(=O)c2ccc(F)cc2F)c1 [CBK155084]
viability at 28.5 h, 10 µM: 95.4%

OCCN(CC#CC(O)(c1ccccc1)c1cccc(F)c1)CCO (centres unmarked) [CBK301210C]
viability at 28.5 h, 10 µM: 91.2%

COC(=O)c1ccccc1NC(=O)CSc1nc(C)cc(C)n1 [CBK263818]
viability at 28.5 h, 10 µM: 96.2%

COc1cccc(OCC2CCCN(C(=O)CCc3cnn(C)c3)C2)c1 (centres unmarked) [CBK306931]
viability at 28.5 h, 10 µM: 85%

O=C(c1cc2cc(Cl)ccc2[nH]1)N1CCN(c2ccccn2)CC1 [CBK107343]
viability at 28.5 h, 10 µM: 93.7%

O=C(O)C(c1c[nH]c2cc(CO)ccc12)N1CCCN(c2ccc(C(F)(F)F)cn2)CC1 (centres unmarked) [CBK286845]
viability at 28.5 h, 10 µM: 85.3%

CCOC(=O)Nc1ccc2c(c1)N(C(=O)CN(C)C)c1ccccc1S2 [CBK261290C]
viability at 28.5 h, 10 µM: 106%

Cc1cccc(C(=O)Nc2ccccc2C(=O)Nc2cccc(C(=O)O)c2C)c1 [CBK265911]
viability at 28.5 h, 10 µM: 99.4%

COc1cccc(N2C(=O)CC(N3CCN(Cc4ccc5c(c4)OCO5)CC3)C2=O)c1 (centres unmarked) [CBK074411]
viability at 28.5 h, 10 µM: 93.1%

O=C(O)c1ccccc1-c1ccccc1C(=O)NCCCO [CBK267197]
viability at 28.5 h, 10 µM: 92.3%

COC(=O)CCc1ccc(S(=O)(=O)N2CCCN(Cc3cccc4c3OCO4)CC2)cc1 [CBK062993]
viability at 28.5 h, 10 µM: 88.8%

OC(COc1cccc(C(F)(F)F)c1)CN1CCN(c2nc(-c3ccccc3)ns2)CC1 (centres unmarked) [CBK074678]
viability at 28.5 h, 10 µM: 93%

CC(CN1CCCCC1)OC(=O)COc1ccc(Br)cc1 (centres unmarked) [CBK265326C]
viability at 28.5 h, 10 µM: 96.9%

O=C(c1ccc2c(c1)C(=O)N(N1C(=O)c3ccccc3C1=O)C2=O)c1ccc2c(c1)C(=O)N(N1C(=O)c3ccccc3C1=O)C2=O [CBK261182]
viability at 28.5 h, 10 µM: 96.4%

CNCc1ccccc1Sc1cccc(OC)c1 [CBK026207C]
viability at 28.5 h, 10 µM: 103%

Cc1ccc(C2(C(=O)NCCn3ccnc3C)CCOCC2)cc1 [CBK281858]
viability at 28.5 h, 10 µM: 95%

CC1C(=O)N(c2ccc(Cl)c(Cl)c2)C(=N)N1c1nc(N(C)C)nc(N(C)C)n1 (centres unmarked) [CBK263182]
viability at 28.5 h, 10 µM: 93.2%

Cc1nn(Cc2ccc(Cl)cc2)c(C)c1NC(=O)CCC(=O)O [CBK287051]
viability at 28.5 h, 10 µM: 88.5%

CS(=O)(=O)c1ccc(-c2cnc3ncccc3c2N)cc1 [CBK083687]
viability at 28.5 h, 10 µM: 97.5%

Cc1nc(C)c(C(=O)c2coc3ccc(O)cc23)o1 [CBK027631]
viability at 28.5 h, 10 µM: 94.1%

O=C1c2ccc(-c3ccc4c(c3)C(=O)N(Cc3ccco3)C4=O)cc2C(=O)N1Cc1ccco1 [CBK266578]
viability at 28.5 h, 10 µM: 93.3%

COCCCn1c(=O)[nH]c2ncc(-c3ccco3)nc21 [CBK064449]
viability at 28.5 h, 10 µM: 99.2%

CCOc1ccc(S(=O)(=O)N(C)CC(=O)N2CCN(C)CC2)cc1 [CBK269953]
viability at 28.5 h, 10 µM: 93.8%

CCn1c(C(O)c2ccccc2)n[nH]c1=S (centres unmarked) [CBK015110]
viability at 28.5 h, 10 µM: 90.5%

FC(F)(F)c1ccnc(OCCN2CCNCC2)c1 [CBK113459]
viability at 28.5 h, 10 µM: 97.4%

CCOc1cc(CNCCO)c(Cl)cc1OC [CBK269309C]
viability at 28.5 h, 10 µM: 102%

CCOC(=O)Cn1c(-c2ccc(OC)cc2)cc2cccnc21 [CBK283320]
viability at 28.5 h, 10 µM: 84.2%

CCOC(=O)c1cnc2ccc(OC)cc2c1NCCN1CCOCC1 [CBK304199]
viability at 28.5 h, 10 µM: 87.7%

CCOc1ccc(-n2nnnc2SCC(=O)c2ccc(Cl)c(Cl)c2)cc1 [CBK141942]
viability at 28.5 h, 10 µM: 88.7%

COc1ccc(/C=C2\S/C(=N\Cc3ccccc3)N(Cc3ccccc3)C2=O)cc1C(=O)O [CBK262715]
viability at 28.5 h, 10 µM: 104%

OC(CN1CCC2(CC1)CC(O)c1cc(F)ccc1O2)c1ccc(-c2ccccc2)cc1 (centres unmarked) [CBK286331]
viability at 28.5 h, 10 µM: 102%

O=C(Nc1ccc(C(F)(F)F)cc1)N(Cc1ccc2ccccc2c1)CC1CCNCC1 [CBK056720]
viability at 28.5 h, 10 µM: 88.9%

O=C(CSCCO)Nc1ccc(N2CCOCC2)cc1 [CBK269616]
viability at 28.5 h, 10 µM: 89.7%

CCN(CC)CCNc1ncnc(N)c1[N+](=O)[O-] [CBK267287]
viability at 28.5 h, 10 µM: 82.8%

CC(C)(C)c1ccc(-c2nnc(SCC(=O)c3ccc(F)cc3)o2)cc1 [CBK067988]
viability at 28.5 h, 10 µM: 102%

CN(Cc1ccccc1)C(=O)c1c[nH]nc1C1CCCCN1Cc1ccccc1Cl (centres unmarked) [CBK285936]
viability at 28.5 h, 10 µM: 88.1%

O=C(O)c1nccnc1C(=O)NCCc1c[nH]c2ccc(Cl)cc12 [CBK286630]
viability at 28.5 h, 10 µM: 93.8%

OCCOCCNc1ncnc2sc(-c3ccccc3)cc12 [CBK265951]
viability at 28.5 h, 10 µM: 76%

Cc1cc(C)c2nc(-c3ccccn3)cc(C(=O)Nc3ccc(S(=O)(=O)Nc4onc(C)c4C)cc3)c2c1 [CBK267775]
viability at 28.5 h, 10 µM: 92.9%

Cc1noc(C)c1NC(=O)c1cnc2ccccc2n1 [CBK200220]
viability at 28.5 h, 10 µM: 98.1%

CC1=CCN(C(=O)c2cccc(S(=O)(=O)NCC3CCCO3)c2)CC1 (centres unmarked) [CBK304669]
viability at 28.5 h, 10 µM: 95.5%
